Results: patent US6218384A, “3-Oxo-pyrido(1,2-a)benzimidazole-4-carboxyl and 4-oxo-azepino(1,2-a)benzimidazole-5-carboxyl derivatives useful in treating central nervous system disorders” (Ortho-McNeil Pharmaceutical, Inc., priority 1997, dated 2001)
Like-named read-outs stand apart in the source and are kept apart here.

What was measured:
[1] = Suppression of metrazol-induced convulsions; assay type: in vivo, male CD1 mice; conditions: mice; for ED50: Mus musculus, 0.5 h; for Metrazol (ip) ED50: 30 min
[2] = target: benzodiazepine site of the GABA-A receptor; assay: Benzodiazepine Receptor Binding Assay (inhibition of 3H-flunitrazepam binding); conditions: ca. 3 nM 3H-flunitrazepam
[3] = Horizontal Screen Test for Motor Coordination; assay type: in vivo, male CD1 mice; conditions: Table 1, mice, parenteral, >300 = active dose not determined; for ED50: Mus musculus, read-out: Horiz. Screen ED50
Procedure: Some of the compounds of the invention were tested for their ability to act as general CNS agents and particularity as skeletal muscle relaxants and hypnotics/sedatives (Coughenour, L. L. et al. Pharm. Biochem. Behav. 1977, 6, 351). Male CD1 mice, fasted for at least 16 hours but allowed access to water except during the period of observation, were placed on a horizontally-held screen (mesh size 1/4", wire diameter approximately 1.0 mm). The screen was inverted and mice which successfully climb to the top side of the screen within one minute were selected for testing. Selected mice were weighed and divided into equal groups. Test compounds or vehicle were administered to those mice parenterally. At a pre-determined interval (or intervals) after administration, the animals were tested for their ability to climb to the top side of the inverted screen (pass the test). Activity is reported as the percent reduction in the number of animals that pass the test in each treatment group relative to the corresponding vehicle-treated group. Percent Reduction=100×([Percent Pass in Vehicle Group]-[Percent Pass in Test Group]/Percent Pass in Vehicle Group). Test compounds which produce a 50% or greater reduction in the number passing the test were considered active. ED50 values of the active compounds were calculated by the method of probits (Finney, D. J. 1971. Probit Analysis. London: Cambridge University Press) and are listed in Tables 1 to 5.

[4] = Suppression of anxiety (punished licking, conflict test) in the adult male rat; assay type: in vivo, male rats
In short: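 Rats were deprived of water for 48 h and food for 24 h, with unpunished training the day before. Testing began at expected peak drug activity: 3-min session, every 20th lick punished by a 0.2-s shock.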

[5] = Screens in which the excluded compounds were tested (not specified); conditions: compounds excluded from formula I
[6] = Horizontal Screen Test for Determining Benzodiazepine Antagonism; assay type: in vivo, male CD1 mice; conditions: mice; for percent antagonism: given parenterally with chlordiazepoxide (28 mg/kg, sc), values above 0 considered active
Procedure: Some of the compounds of the invention were tested for their ability to antagonize the locomotor discoordinating property of chlordiazepoxide. Male CD1 mice, fasted for at least 16 hours but allowed access to water except during the period of observation, were placed on a horizontally-held screen (mesh size 1/4", wire diameter approximately 1.0 mm). The screen was inverted and mice which successfully climb to the top side of the screen within one minute were selected for testing. Selected mice were weighed and divided into equal groups. Test compounds or vehicle were administered to those mice parenterally at the same time as chlordrazepoxide (28 mg/kg, sc). At a pre-determined interval (or intervals) after administration, the animals were tested for their ability to climb to the top side of the inverted screen (pass the test). Activity is reported as the percent antagonism of the number of animals that fail the test in each treatment group relative to the corresponding chlordiazepoxide-treated group. Percent Antagonism =100×[(Percent Fail in Chlordiazepoxide Group)-(Percent Fail in Test Group)/Percent Fail in Chlordiazepoxide Group]. […] The percent antagonism values for the compounds of the present invention that were tested are as follows: CP 113=0, CP 53=0, CP 59=0,CP 102=0,[…],CP 7=17,CP 8=17,CP 9=30,CP 10=30, CP 11=92, CP 12=92, CP 13=100. Compounds having values above 0 were considered active as agents for treating drug overdoses, particularly overdoses of benzodiazepine.

[7] = Table 1, ip, clonic convulsions after sc CD90 metrazol, >30 = active dose not determined, read-out: Metrazol (ip) ED50
[8] = Table 1, 25° C., 10-20 min, >10,000 = not active
[9] = Table 1, ip, minimum effective dose, >10 = active dose not determined, read-out: Conflict (ip) MED
[10] = Table 1, ip, clonic convulsions after sc CD90 metrazol, >30 = active dose not determined
[11] = Table 1, ip, minimum effective dose, >10 = active dose not determined
[12] = Table 3, parenteral, clonic convulsions, read-out: Antimetrazol ED50
[13] = Table 3, minimum effective dose, read-out: Conflict MED
[14] = Table 5, parenteral, clonic convulsions, read-out: Antimetrazol ED50
[15] = Table 5, minimum effective dose, read-out: Conflict MED

Row | Compound | ED50 [1, 7] | IC50 [2, 8] | minimal effective dose [4, 9] | other results
1 | Cc1cccc(C)c1NC(=O)C1=C2Nc3ccccc3N2CCC1=O [compound 19] | > 30 mg/kg | 7700 nM | > 10 mg/kg | ED50 [3]: 300 mg/kg
2 | O=C1CCN2C(=C1C(=O)Nc1ccncc1F)Nc1ccccc12 [compound 97] | 1 mg/kg | 53 nM | 10 mg/kg | ED50 [3]: > 10 mg/kg
3 | O=C(Nc1ccccc1C(F)(F)F)C1=C(O)CCn2c1nc1ccccc12 [1,2-dihydro-3-hydroxy-N-(2-trifluoromethylphenyl)-pyrido(1,2-a)benzimidazole-4-carboxamide] | – | – | – | biological activity in the screens in which they have been tested [5]: none of these compounds has exhibited biological activity
4 | O=C(NCc1ccncc1)C1=C(O)CCn2c1nc1ccccc12 [CP 59, 1,2-Dihydro-3-hydroxy-N-(4-pyridylmethyl)pyrido(1,2-a)benzimidazole-4-carboxamide] | – | – | – | percent antagonism [6]: 0%
5 | O=C(Nc1ccccc1F)C1=C(O)CCn2c1nc1cc(Cl)ccc12 [CP 113, 7-Chloro-1,2-dihydro-3-hydroxy-N-(2-fluorophenyl)-pyrido(1,2-a)benzimidazole-4-carboxamide] | – | – | – | percent antagonism [6]: 0%
6 | O=C(Nc1ccc(O)cc1)C1=C(O)CCn2c1nc1ccccc12 [CP 10, 1,2-Dihydro-3-hydroxy-N-(4-hydroxyphenyl)pyrido(1,2-a)benzimidazole-4-carboxamide] | – | – | – | percent antagonism [6]: 30%
7 | NC(=O)c1ccc(NC(=O)C2=C3Nc4ccccc4N3CCC2=O)cc1 [compound 90] | > 10 mg/kg | 110 nM | > 10 mg/kg | ED50 [3]: > 10 mg/kg
8 | O=C(NC1CCCCC1)C1=C(O)CCn2c1nc1ccccc12 [CP 7, N-Cyclohexyl-1,2-dihydro-3-hydroxy-pyrido(1,2-a)benzimidazole-4-carboxamide] | – | – | – | percent antagonism [6]: 17%
9 | O=C1CCN2C(=C1C(=O)Nc1ncncn1)Nc1ccccc12 [CP 53] | – | – | – | percent antagonism [6]: 0%
10 | CNC(=O)C1=C(O)CCn2c1nc1ccccc12 [CP 102, 1,2-Dihydro-3-hydroxy-N-methyl-pyrido(1,2-a)benzimidazole-4-carboxamide] | – | – | – | percent antagonism [6]: 0%
11 | C[n+]1ccc(NC(=O)C2=C3Nc4ccccc4N3CCC2=O)cc1 [compound 56] | > 10 mg/kg | 6300 nM | > 10 mg/kg | ED50 [3]: 100 mg/kg
12 | O=C1CCN2C(=C1C(=O)Nn1cnnc1)Nc1ccccc12 [compound 42] | > 10 mg/kg | 2700 nM | > 10 mg/kg | ED50 [3]: 300 mg/kg
13 | O=C1CCN2C(=C1C(=O)NC1CCNCC1)Nc1ccccc12 [compound 58] | > 10 mg/kg | > 10000 nM | > 10 mg/kg | ED50 [3]: 100 mg/kg
14 | N-(2-Fluorophenyl)-3-hydroxypyrido(1,2-a)benzimidazol-4-carboxamide [CP 139] | – | > 10000 nM | – | Metrazol (ip) ED50 [1, 10]: > 300 mg/kg; Horiz. Screen ED50 [3]: 300 mg/kg; Conflict (ip) MED [4, 11]: > 10 mg/kg
15 | CCCCc1ccc(NC(=O)C2=C3Nc4ccccc4N3CCC2=O)cc1 [compound 17] | > 10 mg/kg | > 10000 nM | – | ED50 [3]: 300 mg/kg
16 | COc1ccc(NC(=O)C2=C(O)CCn3c2nc2ccccc23)cc1OC [CP 8, 1,2-Dihydro-N-(3,4-dimethoxyphenyl)-3-hydroxy-pyrido(1,2-a)benzimidazole-4-carboxamide] | – | – | – | percent antagonism [6]: 17%
17 | CNC1=Nc2ccc(Cl)cc2C(c2ccccc2)=[N+]([O-])C1 [chlordiazepoxide, reference compound] | – | – | – | impairment of the ability to pass the inverted screen test ([6]; chlordiazepoxide 28 mg/kg, sc): impairs the ability of all animals to pass this test
18 | O=C1CCN2C(=C1C(=O)Nc1cccc(F)c1)Nc1ccccc12 [compound 95] | > 10 mg/kg | 160 nM | > 10 mg/kg | ED50 [3]: > 10 mg/kg

Row | Compound | ED50 [1, 7] | IC50 [2, 8] | minimal effective dose [4, 9] | other results
19 | COc1ccc(NC(=O)C2=C(O)CCn3c2nc2cc(OC)ccc23)cc1 [CP 13, 1,2-Dihydro-3-hydroxy-7-methoxy-N-(4-methoxyphenyl)pyrido(1,2-a)benzimidazole-4-carboxamide] | – | – | – | percent antagonism [6]: 100%
20 | O=C1CCN2C(=C1C(=O)Nc1ccc([N+](=O)[O-])cc1)Nc1ccccc12 [CP 9] | – | – | – | percent antagonism [6]: 30%
21 | CCN1C2=C(C(=O)Nc3ccc(N(C)C)cc3)C(=O)CCN2c2ccccc21 [compound 125] | – | – | – | ED50 [1, 12]: 0.3 mg/kg; IC50 ([2]; Table 3): 72 nM; minimal effective dose [4, 13]: > 10 mg/kg
22 | Cc1cnccc1NC(=O)C1=C2Nc3ccccc3N2CCC1=O [compound 77] | > 10 mg/kg | 7100 nM | > 10 mg/kg | –
23 | NS(=O)(=O)c1ccc(NC(=O)C2=C3Nc4ccccc4N3CCC2=O)cc1 [compound 61] | > 10 mg/kg | 10000 nM | 10 mg/kg | –
24 | CCN1C2=C(C(=O)Nc3ccccc3F)C(=O)CCN2c2ccccc21 [compound 123] | – | – | – | ED50 [1, 12]: 0.01 mg/kg; IC50 ([2]; Table 3): 2.1 nM; minimal effective dose [4, 13]: 0.3 mg/kg
25 | O=C1CCN2C(=C1C(=O)Sc1ccccc1)Nc1ccccc12 [compound 119] | – | – | – | ED50 ([1]; Table 2, ip, clonic convulsions, read-out: Antimetrazol (ip) ED50): > 30 mg/kg; IC50 ([2]; Table 2): 29 nM; minimal effective dose ([4]; Table 2, ip, minimum effective dose, read-out: Conflict (ip) MED): > 10 mg/kg
26 | O=C1CCN2C(=C1C(=O)Nc1nccnn1)Nc1ccccc12 [compound 49] | 10 mg/kg | 54 nM | > 10 mg/kg | –
27 | O=C1CCCN2C(=C1C(=O)Nc1ccccc1)Nc1ccccc12 [compound 143] | – | – | – | ED50 [1, 14]: > 10 mg/kg; IC50 ([2]; Table 5): 104 nM; minimal effective dose [4, 15]: 10 mg/kg
28 | O=C1CCN2C(=C1C(=O)Nc1ccncc1Cl)Nc1ccccc12 [compound 75] | 1 to 10 mg/kg | 220 nM | > 10 mg/kg | –
29 | CCOC(=O)c1ccc(NC(=O)C2=C3Nc4ccccc4N3CCC2=O)cc1 [compound 27] | > 30 mg/kg | > 10000 nM | < 10 mg/kg | –
30 | COc1ccc2c(c1)nc1n2CCC(O)=C1C(=O)Nc1ccccc1 [CP 12, 1,2-Dihydro-3-hydroxy-7-methoxy-N-(phenyl)pyrido(1,2-a)benzimidazole-4-carboxamide] | – | – | – | percent antagonism [6]: 92%
31 | O=C(Nc1ccncc1)c1c(=O)ccn2c1[nH]c1ccccc12 [compound 140] | – | – | – | ED50 ([1]; Table 4, parenteral, clonic convulsions, read-out: Antimetrazol ED50): > 10 mg/kg; IC50 ([2]; Table 4): 260 nM; minimal effective dose ([4]; Table 4, minimum effective dose, read-out: Conflict MED): > 10 mg/kg
32 | O=C1CCN2C(=C1C(=O)Nc1c(F)cccc1F)Nc1cc(F)ccc12 [compound 109] | 0.3 mg/kg | 1.3 nM | 3 mg/kg | –
33 | O=C1CCN2C(=C1C(=O)Nc1ccncc1)Nc1ccccc12 [compound 35] | 2 mg/kg | 160 nM | 3 mg/kg | –
34 | 1,2-Dihydro-5-ethyl-3-oxo-N-(2-fluorophenyl)-pyrido(1,2-a)benzimidazole-4-carboxamide [CP 123] | – | 620 nM | – | Metrazol (ip) ED50 [1, 10]: 5 mg/kg; Conflict (ip) MED [4, 11]: 1 mg/kg
35 | CSc1cc(N(C)C)ccc1NC(=O)C1=C2Nc3ccccc3N2CCC1=O [compound 79] | > 10 mg/kg | 660 nM | > 10 mg/kg | –
36 | CN1C2=C(C(=O)Nc3ccccc3)C(=O)CCCN2c2ccccc21 [compound 144] | – | – | – | ED50 [1, 14]: > 10 mg/kg; IC50 ([2]; Table 5): 28 nM; minimal effective dose [4, 15]: > 10 mg/kg
